The record followed here is patent publication EP0439320A1, “Erectile dysfunction treatment” (YAMANOUCHI PHARMACEUTICAL CO. LTD., priority 1990, dated 1991).

No end group written: not given here.

Data set [1] can be described thus: Acute toxicity test in rats. Conditions: rat, in vivo, F344 rats, single dose, 2 weeks observation, read-out: LD50 (95% confidence limits). As for the experimental part: (§1) The acute toxicity of compound (I) salt was evaluated using ICR mice and F344 rats.
(§2) compound (I) was dissolved in dimethylsulfoxide, and the same amount of Macrogol 400 (trade name) was added, and then distilled water for injection was added thereto to provide a solution of predetermined concentration. The solution was injected once each test, intravenously or subcutaneously, at a rate of 10-20 ml/kg, the maximum concentration of the administered solution being 12 mg/ml and 25 mg/ml respectively. The animals were kept under observation for 2 weeks. LD₅₀ values were determined by the up and down method (Probit method) using 5 animals.

Data set [2] can be described thus: Acute toxicity test in mice. Conditions: mouse, in vivo, single dose, 2 weeks observation, read-out: LD50 (95% confidence limits). As for the experimental part: as §1, §2
Data set [3] relates to penis cavernous smooth muscle of pigs. As to the kind of experiment: Relaxation of isolated pig cavernous smooth muscle strip precontracted with noradrenaline (organ bath, tension recorded). As to conditions: for Time until prior response restored: contractile response to noradrenaline. On the procedure: The pig and humans cavernous smooth muscle specimens are placed in an organ bath, and the tension is recorded. […] Work was also conducted with reference compounds in the porcine tissue, measuring the contractile response to noradrenaline.

Data set [4] relates to human cavernous smooth muscle strip. As to the kind of experiment: Relaxation of isolated human cavernous smooth muscle strip contracted with noradrenaline (organ bath). As to conditions: dose 10^-7 M, contracted with noradrenaline 2 x 10^-5 M, read-out: Inhibiting effect. Details: species or system humans. As for the experimental part: The relaxing effect of compound (I) on isolated specimens of penis cavernous smooth muscle of pigs (smooth muscle strips obtained from slaughtered boards) and of humans was tested by the following method. The pig and humans cavernous smooth muscle specimens are placed in an organ bath, and the tension is recorded. In the case of human cavernous smooth muscle strip, the relaxatory effect was evaluated. The specimen was contracted with a noradrenaline dose of 2 x 10⁻⁵ M and was treated with compound (I) at a dose of 10⁻⁷ M. In Table 2, the result for human tissue is shown.

The subject of data set [5] is penis erection (tumescence) and its firmness (rigidity). As to the kind of experiment: Tumescence and rigidity after intracorporeal injection in anesthetized monkeys. It counts as in vivo, monkeys (Cynogos or Vervet). As to conditions: 0.1 g injected into the corpus cavernosum; evaluated 5 to 120 min after injection; data only in Fig. 1. On the procedure: Tumescence and rigidity after intracorporeal injection of compound (I) were evaluated for monkeys.
Anesthetized monkeys (Cynogos or Vervet), 4-6 kg body weight, were used for the test.
The animal was anesthetized with ketamine and 0.1 g of compound (I) was injected in solution into the corpus cavernosum with a tourniquet at the base of the penis; the animal was then under observation and changes in tumescence and rigidity were noted and plotted. The tourniquet was removed 5 min after the injection.
Manual and visual evaluation of tumescence and rigidity was made 5, 10, 15, 20, 30, 60 and 120 min after injection.
The activity of compound (I) (dose: 0.1 g) on penis erection (tumescence) and firmness (rigidity) in the anesthetized monkeys is shown in Fig. 1.

As a reminder, the LD50 is the dose expected to kill half of the subjects tested. As for `CCOc1ccccc1OCCNC(C)Cc1ccc(OC)c(S(N)(=O)=O)c1` (stereo not drawn) [Compound (I), 5-[2-[2-(2-ethoxyphenoxy)ethylamino]-2-methylethyl] -2-methoxybenzene sulfonamide], the LD50 at 336 h was 78 mg/kg in data set [1] (iv, intravenous, Female); 70 mg/kg in data set [1] (iv, intravenous, Male); 347 mg/kg in data set [1] (sc, subcutaneous, Female); 395 mg/kg in data set [1] (sc, subcutaneous, Male); 103 mg/kg in data set [2] (iv, Female); 98 mg/kg in data set [2] (iv, Male). Moreover, the 50% lethal dose (LD50) at 336 h in data set [2] (sc, subcutaneous, Female) worked out at 275 mg/kg; in data set [2] (sc, subcutaneous, Male) it was 254 mg/kg. For the same compound, in data set [3] (antagonist dose 10^-8 M, at 165 min, noradrenaline 10^-6 to 10^-8 M), the “full response seen (contractile response to noradrenaline)” value is “At 165 min 60% of full response seen”. In data set [4], the inhibition at 0.1 µM came to 100%. For the same compound, in data set [5], the “Effect on penis erection (tumescence) and firmness (rigidity)” value was “excellent effects of potent penis erection, tumescence and rigidity with long lasting action”.

In the case of `COc1ccc(Cc2nccc3cc(OC)c(OC)cc23)cc1OC` [Papaverine], the “Time until prior response restored” value in data set [3] (antagonist dose 2 x 10^-4 M) amounted to 45 min.

In the case of `Cc1ccc(N(CC2=NCCN2)c2cccc(O)c2)cc1` [Phentolamine], in data set [3] (antagonist dose 7 x 10^-7 M), the “Time until prior response restored” value is 150 min.

Take `COc1cc2nc(N3CCN(C(=O)c4ccco4)CC3)nc(N)c2cc1OC` [Prazocin]: in data set [3] (antagonist dose 10^-6 M), the “Time until prior response restored” value stood at 160 min.

In the case of “vasoactive intestinal peptide (HSDAVFTDNYTRLRKQMAVKKYLNSILN; ends and bridges not checked; UniProt P01282 125-152, looked up) [VIP (vasoactive intestinal peptide)]”, the “Time until prior response restored” value in data set [3] (antagonist dose 10^-7 M) worked out at 45 min.
